In PMC4728508 (Marine Drugs, 2016):

Experiments:
Kunming mice = conditions: mouse, in vivo, sc
rat α3β2 nAChR = rat α3β2 nAChR (Rattus norvegicus, UniProt P04757+P12390); type: cell-based
human α3β2 nAChR = human α3β2 nAChR (Homo sapiens, UniProt P17787+P32297); type: cell-based
human α3β2 nAChR, sequence (P32297 32-505 limits assumed): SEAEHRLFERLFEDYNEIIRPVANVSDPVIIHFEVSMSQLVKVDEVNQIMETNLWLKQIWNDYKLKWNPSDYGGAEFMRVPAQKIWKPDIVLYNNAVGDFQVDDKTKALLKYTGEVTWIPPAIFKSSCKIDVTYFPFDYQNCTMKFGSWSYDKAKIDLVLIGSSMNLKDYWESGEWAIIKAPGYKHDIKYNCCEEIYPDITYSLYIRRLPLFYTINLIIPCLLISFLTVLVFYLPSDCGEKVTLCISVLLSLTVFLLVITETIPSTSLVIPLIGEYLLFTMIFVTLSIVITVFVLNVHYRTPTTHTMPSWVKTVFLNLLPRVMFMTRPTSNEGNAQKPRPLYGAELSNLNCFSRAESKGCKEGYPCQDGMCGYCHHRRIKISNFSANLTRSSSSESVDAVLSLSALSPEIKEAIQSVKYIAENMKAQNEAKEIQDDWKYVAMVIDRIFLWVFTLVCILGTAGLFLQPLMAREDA
human α3β2 nAChR, sequence (P17787 26-502 limits assumed): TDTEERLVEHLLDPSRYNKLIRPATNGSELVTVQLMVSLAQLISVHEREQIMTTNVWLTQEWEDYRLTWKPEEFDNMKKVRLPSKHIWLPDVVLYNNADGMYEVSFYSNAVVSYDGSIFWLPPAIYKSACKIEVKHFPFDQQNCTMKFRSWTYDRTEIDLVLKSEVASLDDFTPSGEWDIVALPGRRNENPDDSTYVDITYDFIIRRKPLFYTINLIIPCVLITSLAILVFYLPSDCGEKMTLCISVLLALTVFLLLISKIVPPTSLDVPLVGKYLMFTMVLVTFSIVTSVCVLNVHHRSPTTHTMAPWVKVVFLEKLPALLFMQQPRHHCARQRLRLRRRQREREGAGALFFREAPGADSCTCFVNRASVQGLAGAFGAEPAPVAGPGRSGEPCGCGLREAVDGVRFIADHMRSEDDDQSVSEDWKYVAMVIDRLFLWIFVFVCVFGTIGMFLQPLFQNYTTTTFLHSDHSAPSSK

rat α3β2 nAChR, sequence (P04757 26-499 limits assumed): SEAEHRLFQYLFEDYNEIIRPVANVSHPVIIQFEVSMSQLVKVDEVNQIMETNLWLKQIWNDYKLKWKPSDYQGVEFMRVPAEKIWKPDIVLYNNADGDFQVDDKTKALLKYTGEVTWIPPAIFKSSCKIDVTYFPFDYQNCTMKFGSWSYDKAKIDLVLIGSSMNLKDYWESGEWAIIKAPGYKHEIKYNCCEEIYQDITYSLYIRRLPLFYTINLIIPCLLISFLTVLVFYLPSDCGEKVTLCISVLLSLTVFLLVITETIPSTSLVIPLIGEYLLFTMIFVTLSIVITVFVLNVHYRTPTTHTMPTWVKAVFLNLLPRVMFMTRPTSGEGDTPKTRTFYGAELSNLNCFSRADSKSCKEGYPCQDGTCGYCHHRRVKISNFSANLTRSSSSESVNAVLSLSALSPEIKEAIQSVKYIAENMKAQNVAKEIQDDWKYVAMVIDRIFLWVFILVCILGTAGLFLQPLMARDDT
rat α3β2 nAChR, sequence (P12390 25-500 limits assumed): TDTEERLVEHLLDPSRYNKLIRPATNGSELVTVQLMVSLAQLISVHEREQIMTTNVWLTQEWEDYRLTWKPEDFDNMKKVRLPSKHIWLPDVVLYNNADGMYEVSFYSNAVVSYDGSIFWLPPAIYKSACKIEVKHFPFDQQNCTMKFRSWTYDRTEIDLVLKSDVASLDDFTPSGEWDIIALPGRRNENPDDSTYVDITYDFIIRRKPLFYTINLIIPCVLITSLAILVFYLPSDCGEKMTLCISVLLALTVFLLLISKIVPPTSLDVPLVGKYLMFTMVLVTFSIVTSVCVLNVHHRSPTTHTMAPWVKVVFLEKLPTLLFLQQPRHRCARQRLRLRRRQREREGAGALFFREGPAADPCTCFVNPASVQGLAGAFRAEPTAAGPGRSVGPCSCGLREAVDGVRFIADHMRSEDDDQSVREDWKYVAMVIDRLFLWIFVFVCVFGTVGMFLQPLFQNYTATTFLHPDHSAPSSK

| SMILES | latency to thermal stimulus (Kunming mice) | loss of potency versus native LvIA (rat α3β2 nAChR) [fold] | loss of potency versus native LvIA (human α3β2 nAChR) [fold] |
| --- | --- | --- | --- |
| CN1CC[C@]23c4c5ccc(O)c4O[C@H]2[C@@H](O)C=C[C@H]3[C@H]1C5 [Morphine] | highest latency | – | – |
| CC[C@H](C)[C@@H]1NC(=O)[C@H](CCC(=O)O)NC(=O)[C@@H]2CCCN2C(=O)[C@H](Cc2c[nH]cn2)NC(=O)[C@H](CC(=O)O)NC(=O)[C@H](C(C)C)NC(=O)[C@H](CC(N)=O)NC(=O)[C@@H]2CSSC[C@H](NC(=O)CNC(=O)[C@@H](N)CCSC)C(=O)N[C@@H](CSSC[C@@H](C(=O)O)NC1=O)C(=O)N[C@@H](CO)C(=O)N[C@@H](Cc1c[nH]cn1)C(=O)N1CCC[C@H]1C(=O)N[C@@H](C)C(=O)N2 [rLvIA] | – | 18.5 | 2.7 |
